The test system of one test is MV411 cell line. In words: Cell viability assay ([…]-GLO), MV411. Format: cell-based. The conditions noted are these: for IC50: Homo sapiens, MV4-11, MV411 (ITD-FLT3+), 72 hours treatment; for FLT3-ITD+ Selectivity (K562/MV411): ratio of K562 to MV411 IC50. As to the method: (§1) Cell viability in the presence of varying concentrations of the above listed compounds at different time points was used to assess cytotoxicity and the effect of the compounds on cell proliferation.
(§2) Cell viability was measured by the […]-GlO® cell viability assay from Promega (Madison, Wis.). The […]-GlO® Luminescent Cell Viability Assay is a homogeneous method to determine the number of viable cells in culture based on quantitation of the ATP present, which signals the presence of metabolically active cells. Following treatment, […]-GlO® is added to treatment wells and incubated at 37° C. luminescence values were measured at using a Molecular Devices Spectramax microplate reader.
(§3) Cells were grown to 70% confluency, trypsinized, counted, and seeded in 96 well flat-bottom plates at a final concentration of 2.5×10^3-5×10^3 cells/well (Day 0). Cells were allowed to incubate in growth media for 24 hours. Treatment with the test agents or standard agents began on Day 1 and continued for 72 hours. At the 72-hour time point, treatment containing media was removed.
(§4) For single agent and combination studies, data from each experiment was collected and expressed as % Cell Growth using the following calculation: % Cell Growth=(ftest/fvehicle)×100 Where ftest is the luminescence of the tested sample, and fvehicle is the luminescence of the vehicle in which the drug is dissolved. Dose response graphs and IC50 values were generated using Prism 6 software (GraphPad) using the following equation: Y=(Top−Bottom/(1+10^((logIC50−X)−HillSlope)) Where X is the logarithm of the concentration and Y is the response. Y starts at the Bottom and goes to the Top with a sigmoid shape.
The experiments also evaluated the selectivity of the compounds for inhibiting growth of cancer cells carrying a mutation in the Flt3 gene. The MV411 cell line expresses the mutant allele of Flt3 with internal tandem duplications (ITD) of the gene. See Quentmeier et al., “FLT3 Mutations in Acute Myeloid Leukemia Cell Lines,” Leukemia 17(1), 2003, 120-124. […] See Grafone et al., “Monitoring of FLT3 Phosphorylation Status and Its Response to Drugs By Flow Cytometry in AML Blast Cells,” Hematol Oncol. 26(3), 2008, 159-166. Patients with ITD-FLT3^+ acute myeloid leukemia (AML) experience an extremely poor prognosis.

The next test has as its target ROCK2 (Homo sapiens (Human), UniProt O75116). In words: ROCK2 kinase inhibition assay (LABCHIP peptide phosphorylation). Format: biochemical. The settings on record: 7 μM ATP, 2.5 nM ROCK2, 3 hours at 25° C. How it is done: (§5) The peptide is >98% purity by Capillary Electrophoresis. The peptide is phosphorylated by the protein kinase ROCK1 or ROCK2. The ROCK1 or ROCK2 enzyme, substrate, and cofactors (ATP and Mg^2+) are combined in a well of a microtiter plate and incubated for 3 hours at 25° C. At the end of the incubation, the reaction is quenched by the addition of an EDTA-containing buffer. The substrate and product are separated and quantified electrophoretically using the microfluidic-based LABCHIP® 3000 Drug Discovery System from Caliper Life Sciences (Hopkinton, Mass.).
(§6) Substrate and product peptides present in each sample are separated electrophoretically using the LABCHIP® 3000 capillary electrophoresis instrument. […] Change in the relative fluorescence intensity of the substrate and product peaks is the parameter measured reflecting enzyme activity. Capillary electrophoregramms (RDA acquisition files) are analyzed using HTS Well Analyzer software (Caliper Life Sciences, Hopkinton, Mass.). The kinase activity in each sample is determined as the product to sum ratio (PSR): P/(S+P), where P is the peak height of the product peptide and S is the peak height of the substrate peptide. For each compound, enzyme activity is measured at various concentrations (12 concentrations of compound spaced by 3× dilution intervals). Negative control samples (0%-inhibition in the absence of inhibitor) and positive control samples (100%-inhibition in the presence of 20 mM EDTA) are assembled in replicates of four and are used to calculate %-inhibition values for each compound at each concentration. Percent inhibition (Pinh) is determined using the following equation: Pinh=(PSR0%−PSRinh)/(PSR0%−PSR100%)*100 where PSRinh is the product sum ratio in the presence of inhibitor, PSR/% is the average product sum ratio in the absence of inhibitor, and PSR100% is the average product sum ratio in 100%-inhibition control samples. The IC50 values of inhibitors are determined by fitting the inhibition curves (Pinh versus inhibitor concentration) by 4 parameter sigmoidal dose-response model using XLfit 4 software (IBDS).

A further test relates to K562 cell line. The experiment in a line: Cell viability assay ([…]-GLO), K562. Format: cell-based. The conditions noted are these: Homo sapiens; K562 (does not express ITD-FLT3), 72 hours treatment. How it is done: as §1, §2
as §3, with “removed. Viable cell numbers were quantified by the […]-GLO® cell viability assay as described above. Results from these studies were used to calculate an IC50 value (concentration of drug that inhibits cell growth by 50 percent of control) for each compound.” for “removed.”
as §4, with “shape. […]” for “shape.”

Another test has as its target ROCK1 (Homo sapiens (Human), UniProt Q13464). In words: ROCK1 kinase inhibition assay (LABCHIP peptide phosphorylation). The conditions noted are these: 5 μM ATP, 3 nM ROCK1, 3 hours at 25° C. Format: biochemical. As to the method: as §5, §6

Sequence of ROCK2 (O75116 whole entry): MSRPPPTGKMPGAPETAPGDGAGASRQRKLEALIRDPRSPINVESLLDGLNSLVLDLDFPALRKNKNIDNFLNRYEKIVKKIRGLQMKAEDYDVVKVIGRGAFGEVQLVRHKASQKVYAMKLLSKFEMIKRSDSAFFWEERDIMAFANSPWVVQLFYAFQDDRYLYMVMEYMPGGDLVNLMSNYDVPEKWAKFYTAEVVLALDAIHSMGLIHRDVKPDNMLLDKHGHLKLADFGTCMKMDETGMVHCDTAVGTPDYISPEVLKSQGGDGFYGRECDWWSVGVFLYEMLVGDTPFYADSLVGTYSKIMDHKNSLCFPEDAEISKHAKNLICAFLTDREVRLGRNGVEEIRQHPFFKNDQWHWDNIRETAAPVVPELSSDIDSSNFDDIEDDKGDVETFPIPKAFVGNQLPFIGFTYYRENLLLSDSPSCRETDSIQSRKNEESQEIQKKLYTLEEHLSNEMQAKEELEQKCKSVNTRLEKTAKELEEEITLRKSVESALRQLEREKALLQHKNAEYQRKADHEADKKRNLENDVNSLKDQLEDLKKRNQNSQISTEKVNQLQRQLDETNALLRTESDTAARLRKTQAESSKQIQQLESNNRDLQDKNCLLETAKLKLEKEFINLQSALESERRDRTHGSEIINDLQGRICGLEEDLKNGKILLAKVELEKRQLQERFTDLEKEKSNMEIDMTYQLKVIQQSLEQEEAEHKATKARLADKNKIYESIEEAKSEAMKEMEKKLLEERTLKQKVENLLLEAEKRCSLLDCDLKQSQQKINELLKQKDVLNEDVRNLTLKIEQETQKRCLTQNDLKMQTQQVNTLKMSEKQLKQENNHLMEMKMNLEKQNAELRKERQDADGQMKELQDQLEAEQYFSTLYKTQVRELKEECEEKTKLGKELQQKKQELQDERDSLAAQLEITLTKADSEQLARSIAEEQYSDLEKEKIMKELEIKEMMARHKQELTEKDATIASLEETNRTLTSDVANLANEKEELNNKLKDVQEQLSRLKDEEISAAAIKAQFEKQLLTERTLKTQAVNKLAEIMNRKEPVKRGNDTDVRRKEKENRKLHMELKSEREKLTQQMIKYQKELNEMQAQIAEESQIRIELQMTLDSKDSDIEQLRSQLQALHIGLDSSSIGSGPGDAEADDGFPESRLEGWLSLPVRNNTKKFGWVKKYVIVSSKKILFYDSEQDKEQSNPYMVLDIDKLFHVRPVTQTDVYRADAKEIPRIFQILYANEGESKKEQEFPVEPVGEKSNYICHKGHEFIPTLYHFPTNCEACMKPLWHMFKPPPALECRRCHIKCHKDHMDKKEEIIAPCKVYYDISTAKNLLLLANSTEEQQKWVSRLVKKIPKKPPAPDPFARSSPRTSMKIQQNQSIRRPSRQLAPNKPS
Sequence of ROCK1 (Q13464 whole entry): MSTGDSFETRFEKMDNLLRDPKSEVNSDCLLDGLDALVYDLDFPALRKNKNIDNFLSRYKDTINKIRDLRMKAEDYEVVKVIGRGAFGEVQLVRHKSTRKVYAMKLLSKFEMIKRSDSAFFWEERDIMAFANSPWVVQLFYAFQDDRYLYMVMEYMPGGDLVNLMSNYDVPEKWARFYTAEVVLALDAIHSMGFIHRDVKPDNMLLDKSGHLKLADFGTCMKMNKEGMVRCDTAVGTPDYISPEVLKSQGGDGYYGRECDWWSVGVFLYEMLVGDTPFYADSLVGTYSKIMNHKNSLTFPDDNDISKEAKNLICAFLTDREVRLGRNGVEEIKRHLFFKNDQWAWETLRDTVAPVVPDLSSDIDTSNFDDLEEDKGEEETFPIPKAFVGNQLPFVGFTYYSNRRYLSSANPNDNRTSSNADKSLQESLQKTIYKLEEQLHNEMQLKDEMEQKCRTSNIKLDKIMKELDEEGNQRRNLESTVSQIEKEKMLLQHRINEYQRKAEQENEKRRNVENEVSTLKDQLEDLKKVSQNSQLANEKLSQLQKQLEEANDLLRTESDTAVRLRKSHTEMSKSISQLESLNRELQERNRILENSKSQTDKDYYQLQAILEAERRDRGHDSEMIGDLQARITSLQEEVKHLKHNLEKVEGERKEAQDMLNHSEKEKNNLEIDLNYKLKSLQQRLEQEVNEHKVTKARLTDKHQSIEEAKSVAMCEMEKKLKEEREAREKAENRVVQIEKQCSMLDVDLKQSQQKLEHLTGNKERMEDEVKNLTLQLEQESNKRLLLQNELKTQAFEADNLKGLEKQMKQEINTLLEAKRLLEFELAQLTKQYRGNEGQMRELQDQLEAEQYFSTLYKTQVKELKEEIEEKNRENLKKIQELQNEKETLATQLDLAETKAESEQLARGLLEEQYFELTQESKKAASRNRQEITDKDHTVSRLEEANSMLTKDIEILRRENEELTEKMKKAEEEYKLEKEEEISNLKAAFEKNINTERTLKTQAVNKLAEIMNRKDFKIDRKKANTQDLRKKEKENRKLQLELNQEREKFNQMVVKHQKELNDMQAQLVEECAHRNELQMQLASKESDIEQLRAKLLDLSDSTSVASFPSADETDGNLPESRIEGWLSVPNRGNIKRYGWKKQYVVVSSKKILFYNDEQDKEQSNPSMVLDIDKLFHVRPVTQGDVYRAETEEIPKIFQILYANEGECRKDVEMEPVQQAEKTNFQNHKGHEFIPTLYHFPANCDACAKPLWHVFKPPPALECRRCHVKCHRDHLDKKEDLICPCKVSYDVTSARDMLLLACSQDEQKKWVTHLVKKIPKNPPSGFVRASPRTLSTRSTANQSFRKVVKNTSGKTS

For `COc1cccc(CNC(=O)Nc2cc(-c3ccncc3)[nH]n2)c1` [Compound 5], the IC50 in the test with MV411 cell line came out at 10.2 µM; at ROCK2, 0.0161 µM; with K562 cell line, 43.6 µM; against ROCK1 it was 0.073 µM. The “FLT3-ITD+ Selectivity (K562/MV411)” value in the test with MV411 cell line stood at 4.

In the case of `COc1ccc(OC)c(CNC(=O)Nc2cc(-c3ccncc3)n[nH]2)c1` [Compound 54], the IC50 is 12.6 µM in the test on MV411 cell line and more than 100 µM in the test with K562 cell line. Also, the “FLT3-ITD+ Selectivity (K562/MV411)” value in the test on MV411 cell line was more than 8.

For `COc1cc(F)cc(CNC(=O)Nc2cc(-c3ccncc3)[nH]n2)c1` [Compound 49], in the test on MV411 cell line, the IC50 came out at 7.8 µM and the “FLT3-ITD+ Selectivity (K562/MV411)” value came out at 2. In the test with K562 cell line, the half-maximal inhibitory concentration (IC50) turned out to be 17.8 µM.

Regarding `COc1cccc([C@@H](C)NC(=O)Nc2cc(-c3ccncc3)n[nH]2)c1` [Compound 52], the concentration for half-maximal inhibition (IC50) with MV411 cell line is 11.2 µM; against ROCK2 it was 0.0087 µM; in the test with K562 cell line it was more than 100 µM; on ROCK1, 0.034 µM. In addition, the “FLT3-ITD+ Selectivity (K562/MV411)” value in the test with MV411 cell line is more than 9.

As for `O=C(N[C@H](CO)c1cccc(F)c1)c1cc(-c2ccncc2)[nH]n1` [Compound 1], the IC50 in the test with MV411 cell line is 67.6 µM; on ROCK2, 0.098 µM; in the test on K562 cell line, more than 100 µM; against ROCK1 it was 0.207 µM. The “FLT3-ITD+ Selectivity (K562/MV411)” value with MV411 cell line is reported as more than 1.

With `COc1cccc([C@@H](C)NC(=O)N(C)c2cc(-c3ccncc3)n[nH]2)c1` [Compound 53], the IC50 amounted to 93.3 µM in the test on MV411 cell line and 64.6 µM with K562 cell line. Besides, the “FLT3-ITD+ Selectivity (K562/MV411)” value with MV411 cell line is reported as 1.

With `COc1cc(CNC(=O)Nc2cc(-c3ccncc3)[nH]n2)ccc1F` [Compound 47], in the test on MV411 cell line, the IC50 is 7.8 µM and the “FLT3-ITD+ Selectivity (K562/MV411)” value came to 2. The IC50 in the test on K562 cell line stood at 17.8 µM.

In the case of `COCCOc1cccc(CNC(=O)Nc2cc(-c3ccncc3)[nH]n2)c1` [Compound 51], in the test with MV411 cell line, the IC50 came out at 17 µM and the “FLT3-ITD+ Selectivity (K562/MV411)” value is given as more than 6. For the same compound, in the test with K562 cell line, the IC50 was more than 100 µM.

Take `COc1cccc(CNC(=O)Nc2cnn(-c3ccncc3)c2)c1` [Compound 25]: the IC50 with MV411 cell line is 34 µM; against ROCK2, 0.0287 µM; with K562 cell line, 85 µM; at ROCK1, 0.13 µM. Besides, the “FLT3-ITD+ Selectivity (K562/MV411)” value in the test with MV411 cell line turned out to be 3.

For the compound `COc1ccc(F)c(CNC(=O)Nc2cc(-c3ccncc3)[nH]n2)c1` [Compound 50], the IC50 in the test with MV411 cell line is 7.8 µM; against ROCK2 it was 0.239 µM; in the test on K562 cell line, more than 100 µM; on ROCK1, 1.01 µM. Besides, the “FLT3-ITD+ Selectivity (K562/MV411)” value in the test on MV411 cell line is given as more than 13.

`COc1cccc(CNC(=O)c2cc3ccc(-c4cn[nH]c4)nc3s2)c1` [Compound 40]: the IC50 in the test with MV411 cell line is 7.1 µM; at ROCK2, 0.0174 µM; in the test with K562 cell line, more than 100 µM; at ROCK1, 0.0651 µM. In the test with MV411 cell line, the “FLT3-ITD+ Selectivity (K562/MV411)” value was more than 14.

Turning to `COc1cccc(CNC(=O)Nc2cc(-c3ccncc3)[nH]n2)c1F` [Compound 48], the IC50 against ROCK2 came to 1.87 µM; against ROCK1 it was 6.4 µM.

Consider `COc1cccc(CN(CCN(C)C)C(=O)Nc2cc(-c3ccncc3)[nH]n2)c1` [Compound 11], for which the IC50 with MV411 cell line was 14.5 µM; against ROCK2, 0.0221 µM; in the test with K562 cell line it was more than 100 µM; on ROCK1, 0.0636 µM. Moreover, the “FLT3-ITD+ Selectivity (K562/MV411)” value with MV411 cell line is listed as more than 7.

Take `COc1cccc(CN(C)C(=O)Nc2cc(-c3ccncc3)[nH]n2)c1` [Compound 7]: the IC50 in the test with MV411 cell line was found to be 7.6 µM; against ROCK2, 0.0229 µM; in the test with K562 cell line, 89.1 µM; on ROCK1, 0.102 µM. In addition, the “FLT3-ITD+ Selectivity (K562/MV411)” value in the test on MV411 cell line is reported as 12.

For `COc1cccc(CN(CCO)C(=O)Nc2cc(-c3ccncc3)[nH]n2)c1` [Compound 9], the IC50 was 39.8 µM in the test with MV411 cell line, 0.0391 µM on ROCK2, 97.2 µM with K562 cell line and 0.237 µM at ROCK1. Also, the “FLT3-ITD+ Selectivity (K562/MV411)” value in the test on MV411 cell line is 2.

Regarding `O=C(NCc1cccc(O)c1)Nc1cc(-c2ccncc2)[nH]n1` [Compound 3], in the test with MV411 cell line, the IC50 was 43.7 µM and the “FLT3-ITD+ Selectivity (K562/MV411)” value was more than 2. In addition, the IC50 in the test on K562 cell line was more than 100 µM.

Regarding `Cc1c[nH]c2nccc(Oc3c(F)cc(Nc4cc(Cl)nc(N)n4)cc3F)c12` [Compound A, reference compound], the IC50 in the test with MV411 cell line worked out at 0.7 µM; in the test on K562 cell line, 0.8 µM.

(Values after patent US10392402B2, “Heterocyclic compounds as kinase inhibitors” (TRANSLATIONAL DRUG DEVELOPMENT LLC, priority 2015, dated 2019).)
